In this experiment the test system is viable spores of Geobacillus stearothermophilus. To be noted: for growth results for biological indicators: dose 8 mL, seven BIs, seven-day incubation, no growth = 6-Log CFU reduction. The protocol:
In general, for each of the experiments, a respective amount of gas is circulated in a chamber interior containing Bls (in these experiments, seven Bls) for a respective amount of time. Then, after removing the gas from the chamber interior, the Bls are tested to determine whether the desired CFU reduction was achieved.
One example method of determining whether the desired CFU reduction was achieved is by removing the Bls from the chamber interior after circulating a particular amount of gas for a particular amount of time, and incubating the Bls in a growth-promoting medium for seven days.
In this example, the seven Bls of FIG. 3 may be in one or more locations in the chamber interior (e.g., with at least some in locations that are relatively difficult to decontaminate in the chamber interior). The Bls may be inoculated with viable spores of Geobacillus stearothermophilus, for example, or another suitable type of thermophile bacteria. The D-value of the Bls may be provided by the manufacturer of the Bls and may be, for example, 0.25 minutes, 0.5 minutes, 1 minutes, 1.5 minutes, 2 minutes, 2.5 minutes, or any other suitable D-value.

Read-outs that look alike come from different tables or passages of the source.

From patent US20250064064A1, “METHODS FOR DESIGNING AND […] VAPOR PHASE HYDROGEN PEROXIDE DECON[…]” (Amgen Inc., priority 2021, published 2025) come the findings set out here.

With `OO` [gas, hydrogen peroxide], for the setting “10 mL amount of gas compared with 8 mL amount of gas”, the “growth-no growth behavior with respect to time” value is listed as “identical”. The “growth results for biological indicators” value (gas circulated for 100 seconds) is listed as “all but one BI (BI #4) achieving no growth”, the “growth results for biological indicators” value (gas circulated for 300 seconds) is “no growth for all seven Bls” and the “growth results for biological indicators” value (gas circulated for 500 seconds) is “no growth for all seven Bls”.
